In patent US9717803B2, “Enzymatic conjugation of polypeptides” (Innate Pharma, priority 2011, dated 2017):
Entries after “also recorded” stand apart in the source; their conditions may differ. Where two headings read alike, the source gives them in different places.

What was measured:
[1] = target: T1, bacterial transglutaminase (BTG) (Streptomyces mobaraensis, UniProt P81453); type: biochemical; details: for BTG coupling, result in words: chADC1 N297S and chSGN35 N297S, 18.5 h
T1 construct: purchased Zedira, Darmstadt, Germany
T1 sequence (P81453 77-407): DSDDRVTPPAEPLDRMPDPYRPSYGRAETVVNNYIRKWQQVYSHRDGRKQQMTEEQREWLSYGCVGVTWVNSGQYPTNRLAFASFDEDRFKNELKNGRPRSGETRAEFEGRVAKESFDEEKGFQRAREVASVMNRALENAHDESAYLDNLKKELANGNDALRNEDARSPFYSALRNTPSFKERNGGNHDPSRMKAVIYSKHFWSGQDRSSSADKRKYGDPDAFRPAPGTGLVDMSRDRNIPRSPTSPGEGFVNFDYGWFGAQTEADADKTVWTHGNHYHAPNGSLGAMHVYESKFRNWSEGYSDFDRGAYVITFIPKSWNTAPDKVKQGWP

[2] = Solubility in water / aqueous buffer; type: physicochemical; details: aqueous buffer containing a maximum of 10% DMSO
[3] = cited from earlier work
[4] = chADC1 N297S, 80 eq ligand, 6 U/ml BTG, 1 mg/ml mAb, 37° C.
[5] = PNGaseF-deglycosylated chADC1, 6 U/mL BTG (optimized: 80 eq ligand, 1 mg/ml mAb, 37° C.)
[6] = PNGaseF-deglycosylated chADC1, standard conditions, 1 U/mL BTG
[7] = PNGaseF-deglycosylated chADC1, 80 eq ligand, 6 U/ml BTG, 1 mg/ml mAb, 37° C.
[8] = PNGaseF-deglycosylated chCE7, 80 eq ligand, 6 U/ml BTG, 1 mg/ml mAb, 37° C.
[9] = chADC1 N297Q (two acceptor glutamines per heavy chain), 80 eq ligand, 6 U/ml BTG, 1 mg/ml mAb, 37° C.

## [N-]=[N+]=NCCOCCOCCOCCOCCN [Azide-PEG4-NH2, reference compound]
[1]; chADC1 N297Q, 80 eq ligand, 6 U/ml BTG, 1 mg/ml mAb, 37° C.
  BTG coupling to two glutamines per heavy chain, result in words: complete coupling to two glutamines on all heavy chains
[1]; [4]
  BTG coupling to heavy chain, result in words: quantitative

## biotin-cadaverin [reference compound]
[1]; [5]
  BTG coupling to heavy chain, result in words: modification of all heavy chains
[1]; [6]
  BTG coupling to heavy chain, result in words: did not go to completion

## CN(C)c1cccc2c(S(=O)(=O)NCCCCCN)cccc12 [dansyl-cadaverin, reference compound]
[2]
  solubility in aqueous buffer, in words: limited solubility
[1]; [5]
  BTG coupling to heavy chain, result in words: modification of all heavy chains
[1]; [6]
  BTG coupling to heavy chain, result in words: did not go to completion

## NCCCCCNC(=O)CSC1CC(=O)N(CCNC(=O)CN2CCN(CC(=O)O)CCN(CC(=O)O)CCN(CC(=O)O)CC2)C1=O (stereo not shown) [C2-DOTA, 2,2′,2″-(10-(2-((2-(3-((2-((5-aminopentyl)amino)-2-oxoethyl)thio)-2,5-dioxopyrrolidin-1-yl)ethyl)-amino)-2-oxoethyl)-1,4,7,10-tetraazacyclododecane-1,4,7-triyl)triacetic acid]
[1]; [5]
  BTG coupling to heavy chain, result in words: minor peak modified chADC1 heavy chain
[1]; [7]
  heavy chain with one linker coupled (LC-MS peak): 30%
  unmodified heavy chain (LC-MS peak): 70%
[1]; [6]
  BTG coupling to heavy chain, result in words: only unmodified chADC1 heavy chain
[1]; [4]
  BTG coupling to heavy chain, result in words: quantitative coupling could not be accomplished

## NCCCCCNC(=O)CCCCCSC1CC(=O)N(CCNC(=O)CN2CCN(CC(=O)O)CCN(CC(=O)O)CCN(CC(=O)O)CC2)C1=O (stereo not shown) [C6-DOTA, 2,2′,2″-(10-(2-((2-(3-((6-((5-aminopentyl)amino)-6-oxohexyl)thio)-2,5-dioxopyrrolidin-1-yl)ethyl)-amino)-2-oxoethyl)-1,4,7,10-tetraazacyclododecane-1,4,7-triyl)triacetic acid]
[1]; [7]
  unmodified heavy chain (LC-MS peak): 30%
[1]; [4]
  BTG coupling to heavy chain, result in words: near quantitative coupling

## CC(=O)O[C@H]1C(=O)[C@@]2(C)[C@H]([C@H](OC(=O)c3ccccc3)[C@]3(O)C[C@H](OC(=O)[C@H](O)[C@@H](NC(=O)c4ccccc4)c4ccccc4)C(C)=C1C3(C)C)[C@]1(OC(C)=O)CO[C@@H]1C[C@@H]2O [PTX, paclitaxel]
[3]
  solubility in water: less than 1 μg/ml

## CC[C@@]1(O)C(=O)OCc2c1cc1n(c2=O)Cc2cc3ccccc3nc2-1 [CPT, camptothecin]
[3]
  solubility in water: about 2.5 μg/ml

## maleimide-valine-citrullin-PAB-MMAF+6C Thiol Linker [MMAF linker]
[1]; [7]
  heavy chain with one linker coupled (LC-MS peak): 30%
  unmodified heavy chain (LC-MS peak): 70%
[1]; [8]
  heavy chain with one linker coupled (LC-MS peak): 19%
  unmodified heavy chain (LC-MS peak): 81%
[1]; PNGaseF-deglycosylated mAb, 160 eq substrate, 6 U/mL BTGase, 40 h or 110 h, 37° C.
  BTG coupling with prolonged incubation, result in words: does not push the reaction to completion
[1]; [9]
  heavy chain with one MMAF linker (LC-MS peak): 75%
  heavy chain with two MMAF linkers (LC-MS peak): 25%
[1]; 40 eq linker, 4 U/mL or 2 U/mL BTG, 37° C.
  BTG coupling, result in words: quantitatively functionalized
[1]; 80 eq linker, 4 U/ml or 2 U/ml BTG, 37° C.
  BTG coupling, result in words: complete functionalization
[1]; below 40 eq linker, 4 U/mL or 2 U/mL BTG, 37° C.
  BTG coupling, result in words: no longer quantitative
[1]; [4]
  heavy chain with one linker coupled (LC-MS peak): greater than 90%

## NCCCCCNC(=O)c1ccc(-c2c3ccc(=O)cc-3oc3cc(O)ccc23)c(C(=O)O)c1 [cadaverin-fluorescein linker, reference compound]
[1]; [5]
  BTG coupling to heavy chain, result in words: coupling could not be achieved; also recorded: Only partial modification
